Measured values taken from ChEMBL document CHEMBL6092167, “Phosphorylation as an Effective Tool to Improve Stability and Reduce Toxicity of Antimicrobial Peptides” (J Med Chem, 2024).
≈ marks a conversion by molar mass, not a printed value. Calls of active or inactive are those of the source. The rule behind the calls is not given here. Non-standard residues stand in square brackets, D forms with d. Residues, ends and D or L forms follow the SMILES beside them. Bip = N[C@@H](Cc1ccc(-c2ccccc2)cc1)C(=O)O; pY = N[C@@H](Cc1ccc(OP(=O)(O)O)cc1)C(=O)O

Experiments:
Bacillus subtilis = test: Antibacterial activity against Bacillus subtilis ATCC 23857 incubated for 18 to 24 hrs by broth microdilution method; format: functional; details: time 18-24 hrs
Cell membrane [1] = test: Induction of cell membrane disruption in Staphylococcus aureus ATCC 25923 at 2 times MIC incubated for 2 hrs by SEM analysis; format: subcellular
Klebsiella pneumoniae [2] = test: Durg resistance development in Klebsiella pneumoniae ATCC 700603 measured after 20 passage; format: functional, organism-based
Cell membrane [3] = test: Induction of cell membrane disruption in Pseudomonas aeruginosa ATCC 27853 at 2 times MIC incubated for 2 hrs by SEM analysis; format: subcellular
[4] = Toxicity in ip dosed BALB/c mouse measured after 14 days; format: organism-based; details: in vivo, time 14 day
Staphylococcus aureus [5] = test: Antibacterial activity against Staphylococcus aureus 794 incubated for 18 to 24 hrs by broth microdilution method; format: functional; details: time 18-24 hrs
Klebsiella pneumoniae [6] = test: Additive antibacterial activity against Klebsiella pneumoniae ATCC 700603 assessed as fractional inhibitory concentration index at 1/4 to 4 times MIC incubated for 18 to 24 hrs in presence of rifampicin by checkerboard assay; format: functional; details: time 18-24 hrs
Escherichia coli [7] = test: Antibacterial activity against Escherichia coli 25922 assessed as interaction with LPS by measuring bacterial mortality at 2 times MIC preincubated with LPS for 1 hr followed by bacterial addition and measured after overnight by microplate reader assay; format: functional, organism-based
Pseudomonas aeruginosa [8] = test: Antibacterial activity against Pseudomonas aeruginosa 119 incubated for 18 to 24 hrs by broth microdilution method; format: functional; details: time 18-24 hrs
Cell membrane [9] = test: Induction of membrane damage in Pseudomonas aeruginosa ATCC 27853 assessed as change in membrane shape at 2 times MIC incubated for 30 to 120 mins by SEM analysis; format: subcellular; details: time 30-120 min
Cell membrane [10] = test: Induction of cytoplasmic membrane rupture in Pseudomonas aeruginosa ATCC 27853 assessed as blistering at 2 times MIC incubated for 30 to 120 mins by SEM analysis; format: subcellular; details: time 30-120 min
Staphylococcus aureus [11] = test: Antibiofilm activity against Staphylococcus aureus ATCC 25923 assessed as eradication of preformed biofilms incubated for 24 hrs by crystal violet staining based assay; format: functional, organism-based
Cell membrane [12] = test: Induction of cytoplasmic membrane rupture in Pseudomonas aeruginosa ATCC 27853 assessed as wrinkling at 2 times MIC incubated for 30 to 120 mins by SEM analysis; format: subcellular; details: time 30-120 min
Cell membrane [13] = test: Induction of cytoplasmic membrane rupture in Staphylococcus aureus ATCC 25923 assessed as content leakage at 2 times MIC incubated for 30 to 120 mins by SEM analysis; format: subcellular; details: time 30-120 min
Escherichia coli [14] = test: Antibacterial activity against Escherichia coli 850 incubated for 18 to 24 hrs by broth microdilution method; format: functional; details: time 18-24 hrs
[15] = Stability in Kunming mouse serum assessed as half life measured upto 24 hrs by RP-HPLC method; format: ADME, cell-free
Klebsiella pneumoniae [16] = test: Inhibition of kanamycin resistance in Klebsiella pneumoniae ATCC 700603 at 1:1 compound: kanamycin molar ratio measured after 20 generation; format: functional, organism-based
Pseudomonas aeruginosa [17] = test: Antibacterial activity against Pseudomonas aeruginosa ATCC 27853 incubated for 18 to 24 hrs by broth microdilution method; format: functional; details: time 18-24 hrs
Staphylococcus aureus [18] = test: Antibacterial activity against methicillin resistant Staphylococcus aureus ATCC 33591 incubated for 18 to 24 hrs by broth microdilution method; format: functional; details: time 18-24 hrs
Klebsiella pneumoniae [19] = test: Inhibition of biofilm formation in Klebsiella pneumoniae ATCC 700603 incubated for 24 hrs by crystal violet staining based assay; format: functional, organism-based
Klebsiella pneumoniae [20] = test: Antibacterial activity against rifampicin resistant Klebsiella pneumoniae; format: functional
Cell membrane [21] = test: Induction of cytoplasmic membrane rupture in Staphylococcus aureus ATCC 25923 assessed as shrinkage at 2 times MIC incubated for 30 to 120 mins by SEM analysis; format: subcellular; details: time 30-120 min
Cell membrane [22] = test: Induction of cytoplasmic membrane rupture in Pseudomonas aeruginosa ATCC 27853 assessed as leakage of cellular content at 2 times MIC incubated for 30 to 120 mins by SEM analysis; format: subcellular; details: time 30-120 min
Klebsiella pneumoniae [23] = test: Additive antibacterial activity against Klebsiella pneumoniae ATCC 700603 assessed as fractional inhibitory concentration index at 1/4 to 4 times MIC incubated for 18 to 24 hrs in presence of ciprofloxacin by checkerboard assay; format: functional; details: time 18-24 hrs
Klebsiella pneumoniae [24] = test: Antibiofilm activity against Klebsiella pneumoniae ATCC 700603 assessed as eradication of preformed biofilms at 2 to 4 times MIC incubated for 24 hrs by crystal violet staining based assay; format: functional, organism-based
Cell membrane [25] = test: Induction of cytoplasmic membrane rupture in Pseudomonas aeruginosa ATCC 27853 assessed as adhesion at 2 times MIC incubated for 30 to 120 mins by SEM analysis; format: subcellular; details: time 30-120 min
Cell membrane [26] = test: Induction of outer membrane permeabilization in Escherichia coli ATCC 25922 assessed as increase in fluorescence intensity incubated for 1 min by NPN dye based microplate reader assay; format: subcellular
Klebsiella pneumoniae [27] = test: Inhibition of rifampicin resistance in Klebsiella pneumoniae ATCC 700603 at 1:1 compound: rifampicin molar ratio measured after 20 generation; format: functional, organism-based
Klebsiella pneumoniae [28] = test: Antibacterial activity against kanamycin resistant Klebsiella pneumoniae; format: functional
Escherichia coli [29] = test: Antibiofilm activity against Escherichia coli ATCC 25922 assessed as eradication of preformed biofilms incubated for 24 hrs by crystal violet staining based assay; format: functional, organism-based
Cell membrane [30] = test: Induction of inner membrane permeabilization in Escherichia coli ML-35 assessed as increase in […] intensity measured every 5 mins for 135 mins by ONPG dye based microplate reader assay; format: subcellular
Acinetobacter baumannii = test: Antibacterial activity against Acinetobacter baumannii ATCC 19606 incubated for 18 to 24 hrs by broth microdilution method; format: functional; details: time 18-24 hrs
[31] = Cytotoxicity against HEK293T cells incubated for 1 hr by fluorescence based microplate reader assay; format: toxicity, cell-based, HEK-293T; details: human
Escherichia coli [32] = test: Inhibition of biofilm formation in Escherichia coli ATCC 25922 incubated for 24 hrs by crystal violet staining based assay; format: functional, organism-based
Escherichia coli [33] = test: Antibacterial activity against Escherichia coli 780 incubated for 18 to 24 hrs by broth microdilution method; format: functional; details: time 18-24 hrs
Staphylococcus aureus [34] = test: Antibacterial activity against methicillin resistant Staphylococcus aureus 48 incubated for 18 to 24 hrs by broth microdilution method; format: functional; details: time 18-24 hrs
Staphylococcus aureus [35] = test: Antibiofilm activity against Staphylococcus aureus ATCC 25923 assessed as eradication of preformed biofilms at 2 to 4 times MIC incubated for 24 hrs by crystal violet staining based assay; format: functional, organism-based
Klebsiella pneumoniae [36] = test: Antibiofilm activity against Klebsiella pneumoniae ATCC 700603 assessed as eradication of preformed biofilms incubated for 24 hrs by crystal violet staining based assay; format: functional, organism-based
[37] = Hemolytic activity in mouse erythrocyte incubated for 1 hr by microplate reader assay; format: toxicity, cell-based
Escherichia coli [38] = test: Antibacterial activity against Escherichia coli ATCC 25922 incubated for 18 to 24 hrs by broth microdilution method; format: functional; details: time 18-24 hrs
Pseudomonas aeruginosa [39] = test: Antibiofilm activity against Pseudomonas aeruginosa ATCC 27853 assessed as eradication of preformed biofilms incubated for 24 hrs by crystal violet staining based assay; format: functional, organism-based
Klebsiella pneumoniae [40] = test: Additive antibacterial activity against Klebsiella pneumoniae ATCC 700603 assessed as fractional inhibitory concentration index at 1/4 to 4 times MIC incubated for 18 to 24 hrs in presence of kanamycin by checkerboard assay; format: functional; details: time 18-24 hrs
Staphylococcus aureus [41] = test: Inhibition of biofilm formation in Staphylococcus aureus ATCC 25923 at 1 time MIC incubated for 24 hrs by crystal violet staining based assay; format: functional, organism-based

## CC(C)C[C@H](NC(=O)[C@H](CC(C)C)NC(=O)[C@H](Cc1ccc(OP(=O)(O)O)cc1)NC(=O)[C@H](CCCCN)NC(=O)[C@H](CC(C)C)NC(=O)[C@H](CCCNC(=N)N)NC(=O)[C@H](CCCCN)NC(=O)[C@H](Cc1ccc(-c2ccccc2)cc1)NC(=O)[C@H](CC(C)C)NC(=O)CN)C(N)=O (H-GL[Bip]KRLK[pY]LL-NH2)
Bacillus subtilis
  MIC: 8 µM (≈ 11.2 µg/mL)
Cell membrane [1]
  Activity: Active; More Potent Than Polymyxin B And Vancomycin
Klebsiella pneumoniae [2]
  Activity: inactive
Cell membrane [3]
  Activity: Active; More Potent Than Polymyxin B And Vancomycin
[4]
  LD50 at 336 h: 283 mg/kg
Staphylococcus aureus [5]
  MIC: 8 µM (≈ 11.2 µg/mL)
Klebsiella pneumoniae [6]
  fractional inhibitory concentration index (FICI): 0.563
Escherichia coli [7]
  Activity: Active; Activity Comparable To Polymyxin B
Pseudomonas aeruginosa [8]
  MIC: 15 µM (≈ 21.1 µg/mL)
Cell membrane [9]
  Activity: Active
Cell membrane [10]
  Activity: Active
Staphylococcus aureus [11]
  Activity: Dose-dependent-effect; Superior Activity Compared To Polymyxin B And Vancomycin
Cell membrane [12]
  Activity: Active
Cell membrane [13]
  Activity: Active
Escherichia coli [14]
  MIC: 8 µM (≈ 11.2 µg/mL)
[15]
  half-life: 8.51 h
Klebsiella pneumoniae [16]
  inhibition: Active
Pseudomonas aeruginosa [17]
  MIC: 16 µM (≈ 22.5 µg/mL)
Staphylococcus aureus [18]
  MIC: 8 µM (≈ 11.2 µg/mL)
Klebsiella pneumoniae [19]
  inhibition: Dose-dependent-effect; Inhibition Comparable To Polymyxin B
Klebsiella pneumoniae [20]
  MIC: 8 µM (≈ 11.2 µg/mL)
Cell membrane [21]
  Activity: Active
Cell membrane [22]
  Activity: Active
Klebsiella pneumoniae [23]
  fractional inhibitory concentration index (FICI): 0.563
Klebsiella pneumoniae [24]
  Activity: Active
Cell membrane [25]
  Activity: Active
Cell membrane [26]
  Activity: Dose-dependent-effect
Klebsiella pneumoniae [27]
  inhibition: Active
Klebsiella pneumoniae [28]
  MIC: 8 µM (≈ 11.2 µg/mL)
Escherichia coli [29]
  Activity: Dose-dependent-effect; Superior Activity Compared To Polymyxin B And Vancomycin
Cell membrane [30]
  Activity: Dose-dependent-effect; More Potent Than 1% Triton X-100 And Polymyxin B
Acinetobacter baumannii
  MIC: 4 µM (≈ 5.62 µg/mL)
[31]
  CC50 at 1 h: 168 µM
Escherichia coli [32]
  inhibition: Dose-dependent-effect; Inhibition Comparable To Polymyxin B
Escherichia coli [33]
  MIC: 8 µM (≈ 11.2 µg/mL)
Staphylococcus aureus [34]
  MIC: 8 µM (≈ 11.2 µg/mL)
Staphylococcus aureus [35]
  Activity: Active
Klebsiella pneumoniae [36]
  Activity: Dose-dependent-effect; Superior Activity Compared To Polymyxin B And Vancomycin
[37]
  MHC: > 256 µM
Escherichia coli [38]
  MIC: 8 µM (≈ 11.2 µg/mL)
Pseudomonas aeruginosa [39]
  Activity: Dose-dependent-effect; Superior Activity Compared To Polymyxin B And Vancomycin
Klebsiella pneumoniae [40]
  fractional inhibitory concentration index (FICI): 0.563
Staphylococcus aureus [41]
  inhibition: Active
